Tested on: dogs
Test: Single dose acute oral toxicity/TK study in dogs
Assay type: in vivo, dog

## CC[C@H]1C[C@H]2C[C@H]3c4[nH]c5ccc(O)cc5c4CCN(C2)[C@@H]13 [noribogaine]
  NOAEL: 5 mg/kg
5 mg/kg
  Findings at the NOAEL dose: only transient reduction in food consumption in one dog
10 mg/kg, beginning 20 minutes after dosing, persisting until 3 h 40 m post-dose
  Clinical signs: Convulsions and other CNS-related clinical signs
5 (n=2) or 10 (n=2) mg/kg
  Mortality: no mortality occurred

Reference: patent publication US20160271139A1, “METHOD FOR NON-TOXIC TREATMENT FOR DRUG WITHDRAWAL” (DEMERX, INC., priority 2013, published 2016)
